Test results reported in patent EP0311383B1, “Monoclonal antibody to methamphetamine, preparation of the same, assay method and assay kit of methamphetamine” (UBE INDUSTRIES, LTD., priority 1987, dated 1989).
Read-outs that look alike come from different tables or passages of the source.

Legend:
Assay type in all cases: binding, mouse
[1] = tested on: monoclonal antibody MA-13 (FERM BP-1495); test: Assay test II: competitive ELISA on immobilised MA-BSA, reactivities of the monoclonal antibody with various compounds
Description: (§1) First, in each analytic well of a 96-well U-bottomed ELISA plate was apportioned each 50 µl of an MA-BSA solution (2 µg/ml, dissolved in 0.05 M carbonate buffer of pH 9.8) which is the antigen for analysis prepared in Example 1, and the mixture was left to stand overnight at 4 °C (by such treatment, MA-BSA was adsorbed onto the surface of each analytic well).
(§2) Subsequently, after each analytic well was washed with a washing solution (PBS containing 0.05 % of Tween 20), each apportioned in each analytic well, left to stand at room temperature for 2 hours, these respective analytic wells were washed with the washing solution, and the culture supernatant in each culture well of the above culture plate was apportioned each in 50 µl into these respective analytic wells and left to stand at room temperature for 2 hours (for the negative control, a supernatant obtained by culturing similarly a mixture of mouse spleen lymphocytes and mouse myeloma cells before fusion was employed; on the other hand, for the positive control, the serum of mouse used for cell fusion in the present invention diluted to 100-fold with the washing liquor was used).
(§3) Next, each analytic well in the ELISA plate was washed, and each 50 µl of an alkaline phosphatase labeled antibody solution to mouse immunoglobulin was apportioned into each analytic well and left to stand at room temperature for 1 hour. And, after each analytic well in the ELISA plate was washed, each 100 µl of a sodium p-nitrophenylphosphate 6H₂O solution (1 mg/ml) was apportioned into each analytic well and, after the reaction at room temperature for 30 minutes, absorbance of each well at 405 nm was assayed by means of a spectrophotometer for microplate.
(§4) In order to determine the reaction specificities of the monoclonal antibodies such as MA-7, MA-13 and MA-15, reactivities with compounds different from MA such as AP (amphetamine), EP (ephedrin), ME (methylephedrin), MPA (methoxyphenamine), PT (phentermine), norEp (norephedrin), DBED (N,N′-dibenzylethylenediamine), OH-MA (p-hydroxymethamphetamine), OH-AP (p-hydroxyamphetamine), OH-EP (p-hydr oxyephedrin), OH-norEP (p-hydroxynorephedrin), Mes (mescaline), etc. were investigated according to the same ELISA method as described above in the step (c) (however, the reagent used for assay was made two-fold in amount, and a mixed solution of 50 µl of a solution of a compound diluted at multiple stages with the washing liquor and 50 µl of a monoclonal antibody solution was used in place of the hybridoma culture supernatant).
(§5) The reactivities of these antibodies with MA, AP, EP, ME, MPA, PT, norEp, DBED, OH-MA, OH-AP, OH-EP, OH-norEP and Mes are shown in Table 1 in terms of the reactive ratios relative to MA.

[2] = tested on: monoclonal antibody MA-15 (FERM BP-1496); test: as above
Description: as §1, §2, §3, §4, §5

[3] = tested on: monoclonal antibody MA-7 (FERM BP-1494); test: as above
Description: as §1, §2, §3, §4, §5

[4] = tested on: "enzyme-labeled antibody" (peroxidase-labeled monoclonal antibody MA-15); test: Reactivity of MA analogous compounds in the competitive enzyme immunoassay with MA bound protein and enzyme-labeled antibody (Example 15)
Description: The antibody in the "enzyme-labeled antibody" was obtained as the purified monoclonal antibody as shown in Reference example 2 by use of the MA-15 strain (FERM-P 1496).
First, […] of horseradish peroxidase was dissolved in 1 ml of distilled water and 200 µl of 0.1 M sodium periodate was added, followed by standing at room temperature for 30 minutes. After the enzyme solution was dialyzed at 4 °C overnight against 1 mM acetate buffer (pH 4.5), 100 µl of 0.2 M sodium carbonate buffer (pH 9.5) was added to adjust pH to 9.5. On the other hand, 8 mg of the monoclonal antibody (MA-15) dissolved in PBS was dialyzed at 4 °C overnight against 0.01 M sodium carbonate buffer (pH 9.5). The peroxidase and the monoclonal antibody thus obtained was mixed, left to stand at room temperature for 2 hours and a half, and sodium borohydride was added to the reaction mixture, followed by standing at 4 °C for 2 hours. The peroxidase-labeled monoclonal antibody thus obtained was dialyzed at 4 °C overnight against PBS, and this was diluted to 100-fold with PBS containing 0.01 % sodium ethylmercurithiosalicylate, apportioned each in 0.2 ml into a bottle and stored under lyophilization to provide the "enzyme-labeled antibody" (10 µg/bottle) which is the assay kit of MA. During assay of MA, 0.2 ml of distilled water was added into the bottle to dissolve well the lyophilized powder, and the solution was suitable diluted with PBS before use.
The MA-BSA which is the "MA bound protein" (bound product of MA and BSA, 5 µg/ml) was apportioned each in 100 µl into a 96-well flat-bottomed plate for immunoassay which is the solid phase support (microplate made of polystyrene produced by Nunc Co.), and left to stand under 4 °C overnight to immobilize MA-BSA onto each well. Next, for preventing non-specific adsorption of the "enzyme-labeled antibody" onto the plate, a washing solution containing 10 % calf serum (phosphate buffer of pH 7.4 containing 0.05 % of Tween 20) was placed and left to stand under room temperature for 30 minutes. Next, after washing with the same washing solution, 50 µl of the standard MA solution prepared by using the diluted urine of healthy man (produced by HYLAND DIAGNOSTIC CO.) to 5-fold with the same washing solution [(0 to 150 ng)/50 µl] and 50 µl of the "enzyme-labeled antibody" prepared in Example 1 were added at the same time into each well, followed by mixing and standing under room temperature for 30 minutes. […] Finally, each 50 µl of 2N sulfuric acid was apportioned to stop the enzymatic reaction, and absorbance of the solution after stopping of the reaction at 492 nm was assayed by use of a microplate photometer. […]

[5] = tested on: "antibody carrier" (monoclonal antibody to MA on polystyrene latex); test: Latex agglutination assay with MA carrier and antibody carrier, time until agglutination is seen with naked eyes; conditions: same as at 0 ppm
Description: Each solution was quickly stirred with a stirring stick to carry out the reaction while moving the reaction plate, forward and backward, left and right, at a constant temperature (e.g. room temperature) for a certain period of time (e.g. 1 to 2 minutes), and the agglutination of each set formed by the reaction between the "antibody carrier" and the "MA carrier" is observed. At this time, by observing with comparison between the agglutination in the case of the set by use of the "standard MA solution" and the agglutination in the case of the set by use of the sample to be assayed, the MA content in the sample to be assayed can be known.
A mixture of 100 µl of MA-BSA solution (400 µg/ml) with 100 µl of a polystyrene latex which is the carrier (solid components 4.0 % by weight, particle size 0.8 µm, solvent PBS was shaken at 37 °C for 3 hours to have the MA-BSA carried physically on the polystyrene latex surface to obtain the "MA carrier".
The "MA carrier" prepared in Example 18 and the "antibody carrier " prepared in Example 19 were added dropwise each in 25 µl separately from each other onto the three sheets of reaction plates, and on the same plates were further added each 5 µl of the samples to be assayed with MA concentrations of 0.5 ppm and 1.0 ppm prepared by dilution with urine of healthy man (produced by HYLAND DIAGNOSTIC CO.) separately from each other, followed immediately by mixing of the "MA carrier", the "antibody carrier" and the sample to be assayed with a stirring stick.
In Example 20, samples to be assayed were prepared by use of methylephedrine (ME) in place of MA and the assay was carried out, following otherwise the same procedure.
In Example 20, samples to be assayed were prepared by use of ephedrine (EP) in place of MA and the assay was carried out, following otherwise the same procedure.

[6] = monoclonal antibody MA-13, compound diluted at multiple stages, MA = 1
[7] = monoclonal antibody MA-15, compound diluted at multiple stages, MA = 1
[8] = monoclonal antibody MA-7, compound diluted at multiple stages, MA = 1
[9] = enzyme-labeled antibody, according to Example 6, MA = 100
[10] = concentration in sample 0.5 ppm
[11] = concentration in sample 1.0 ppm

Row | SMILES | reactive ratios relative to MA [1, 6] | reactive ratios relative to MA [2, 7] | reactive ratios relative to MA [3, 8] | also measured
1 | CC(N)C(O)c1ccccc1 (centres unmarked) [norEP, norephedrin] | <0.001 | <0.001 | <0.001 | reactive ratios relative to MA ([1]; monoclonal antibody MA-13, compound diluted at multiple stages, MA = 1, listed as norephedrine): < 0.001; reactive ratios relative to MA ([2]; monoclonal antibody MA-15, compound diluted at multiple stages, MA = 1, listed as norephedrine): < 0.001; reactive ratios relative to MA ([3]; monoclonal antibody MA-7, compound diluted at multiple stages, MA = 1, listed as norephedrine): < 0.001
2 | CNC(C)C(O)c1ccc(O)cc1 (centres unmarked) [OH-EP, p-hydroxyephedrine] | <0.001 | 0.0031 | <0.001 | reactive ratios relative to MA ([1]; monoclonal antibody MA-13, compound diluted at multiple stages, MA = 1, listed as p-hydroxephedrine): < 0.001; reactive ratios relative to MA ([3]; monoclonal antibody MA-7, compound diluted at multiple stages, MA = 1, listed as p-hydroxyephedrine): < 0.001
3 | CC([C@H](O)c1ccccc1)N(C)C (some centres unmarked) [ME, methylephedrin] | 0.028 | 0.016 | 0.022 | Reactivity (%) [4, 9]: 1.2%; time until particles of polystyrene latex were observed with naked eyes to be agglutinated [5, 10]: ≤ 30 s; time until particles of polystyrene latex were observed with naked eyes to be agglutinated [5, 11]: ≤ 30 s
4 | CC(C)(N)Cc1ccccc1 [PT, phentermine] | 0.12 | 0.0039 | 0.042 | –
5 | CNC(C)Cc1ccccc1OC (centres unmarked) [MPA, methoxyphenamine] | 0.0037 | 0.0016 | 0.023 | Reactivity (%) [4, 9]: <0.2%
6 | CC(N)Cc1ccccc1 (centres unmarked) [AP, amphetamine] | – | – | – | reactive ratios relative to MA [1]: 0.0062; reactive ratios relative to MA [2]: 0.019; reactive ratios relative to MA [3]: 0.0051; Reactivity (%) [4]: 1.8%
7 | CC(N)C(O)c1ccc(O)cc1 (centres unmarked) [OH-norEP, p-hydroxynorephedrin] | <0.001 | <0.001 | <0.001 | reactive ratios relative to MA ([1]; monoclonal antibody MA-13, compound diluted at multiple stages, MA = 1, listed as p-hydroxynorephedrine): < 0.001; reactive ratios relative to MA ([2]; monoclonal antibody MA-15, compound diluted at multiple stages, MA = 1, listed as p-hydroxynorephedrine): < 0.001; reactive ratios relative to MA ([3]; monoclonal antibody MA-7, compound diluted at multiple stages, MA = 1, listed as p-hydroxynorephedrine): < 0.001
8 | CNC(C)Cc1ccc(O)cc1 (centres unmarked) [OH-MA, p-hydroxymethamphetamine] | 0.14 | 0.014 | 0.0039 | –
9 | CN[C@@H](C)[C@H](O)c1ccccc1 [EP, ephedrin] | 0.0025 | 0.0012 | 0.0018 | time until particles of polystyrene latex were observed with naked eyes to be agglutinated [5, 10]: ≤ 30 s; time until particles of polystyrene latex were observed with naked eyes to be agglutinated [5, 11]: ≤ 30 s
10 | c1ccc(CNCCNCc2ccccc2)cc1 [DBED, N,N′-dibenzylethylenediamine] | 0.23 | 0.0055 | 0.17 | –
11 | CN[C@@H](C)Cc1ccccc1 [MA, methamphetamine] | 1 | 1 | 1 | Reactivity (%) [4, 9]: 100%
12 | CC(N)Cc1ccc(O)cc1 (centres unmarked) [OH-AP, p-hydroxyamphetamine] | 0.003 | <0.001 | <0.001 | reactive ratios relative to MA ([2]; monoclonal antibody MA-15, compound diluted at multiple stages, MA = 1, listed as p-hydroxyamphetamine): < 0.001; reactive ratios relative to MA ([3]; monoclonal antibody MA-7, compound diluted at multiple stages, MA = 1, listed as p-hydroxyamphetamine): < 0.001
13 | COc1cc(CCN)cc(OC)c1OC [Mes, mescaline] | – | – | – | reactive ratios relative to MA [1]: <0.00001; reactive ratios relative to MA [3]: <0.00001
